Results published in article PMC10349804, “Natural resveratrol analogs differentially target endometriotic cells into apoptosis pathways” (Scientific Reports, 2023).
Values joined by “and” are separate entries in the source; they are usually repeats but may differ in a detail not shown here. Identical values can stand only once.

Assays:
[1] = system: endometriotic 12Z cells; assay: TUNEL assay of DNA fragmentation, flow cytometry; type: cell-based, human; settings: 48 h
Procedure: Cell death via apoptosis in 12Z cells after exposure to resveratrol and its natural derivatives was determined by detecting DNA fragmentation (Fig. 5). DNA degradation was correlated in a dose-dependent manner. […] Tunel-positive cell population in the 12Z cell culture treated with camptothecin was estimated at 32.5%, compared to 0.6% in the vehicle-treated control culture.
The detection of DNA fragmentation in 12Z cells was performed using the terminal deoxynucleotidyl-transferase-mediated dUTP nick end labeling (TUNEL) assay with In Situ Cell Death Detection Kit (Roche Diagnostics, Indianapolis, IN, USA). The test detects DNA breakage that is identified by terminal deoxynucleotidyl transferase. After treatment, the harvested cells were fixed in 4% paraformaldehyde and permeabilized in 0.1% Triton X-100. After washing in PBS, cells were subjected to TUNEL labeling with fluorescein-labeled dUTP and terminal deoxynucleotidyl transferase mixture. Cells were analyzed by flow cytometry using an Amnis™ FlowSight™ flow cytometer.

[2] = system: caspases-3/7; assay: APO-One Homogenous Caspase-3/7 Assay in 12Z cells; type: cell-based, human
Procedure: Resveratrol evoked a dose-dependent caspase-3/7 activation in 12Z cells (F = 2467.29, p < 0.0001). […] It was consistent with the results of CASP3 gene expression activation. […] There was a 2.8-fold activation of caspase 3/7 enzymes following treatment with piceatannol at a 200 μM dose, which complies with the CASP3 mRNA expression level.
To quantitate the proteolytic activity of caspase 3 and 7, we performed an assay based on the proteolytic cleavage of the C-terminal side of the aspartate residue in the DEVD peptide substrate by caspase 3/7 and into the fluorescent rhodamine 110. Caspase 3/7 activity was determined using the APO-One Homogenous Caspase-3/7 Assay (Promega Corporation, Wisconsin, USA) following the manufacturer's instructions. The obtained data were normalized to cellular protein content. The total protein was quantified by BCA assay (Pierce® BCA Protein Assay Kit, Thermo Scientific Inc., USA) according to the manufacturer's protocol.

[3] = system: endometriotic epithelial 12Z cells; assay: MTT reduction assay, cell viability; type: cell-based, human; settings: for IC10 / IC50: 12Z cells, 48-h incubation; for IC50: Homo sapiens; for cytotoxicity in 12Z versus T HESC cells, comparing IC50 values: 48 h
Procedure: (§1) The effect of resveratrol and its natural analogs on the viability of endometriotic epithelial 12Z cells and endometrial stromal T HESC cells was assessed using the MTT assay. Table 1 presents the IC10 and IC50 values (the inhibitor concentration required for 10% and 50% reduction in […]) obtained after 48-h incubation with the tested compounds. […] The cytotoxicity of resveratrol and pterostilbene to 12Z cells was not markedly different. T HESC and 12Z cells varied in susceptibility to the treatment with stilbenes tested, as evidenced by the cytotoxic doses shown in Table 1. […] Similarly, resveratrol evoked much weaker cytotoxic effects in T HESC cells than in 12Z cells. Polydatin at concentrations up to 400 µM was not cytotoxic to the T HESC cells, while at a dose of 86.76 µM, it induced the first cytotoxic symptoms in 12Z cells. […] The increased susceptibility of endometriotic 12Z cells than endometrial T HESC cells to resveratrol and its natural analogs was consistent in both assays (Fig. 1).
(§2) The immortalized human endometriotic epithelial cells (12Z), derived from peritoneal endometriosis lesions, were obtained from Applied Biological Materials Inc. (Richmond, Canada). The 12Z cells were cultured in Dulbecco's Modified Eagle Medium/Nutrient Mixture F-12 (DMEM/F12), containing 10% fetal bovine serum (FBS) and 50 mg/L gentamycin. American Type Culture Collection (ATCC, Manassas, VA, USA) was the source for human endometrial stromal cells immortalized by telomerase (T HESC, CRL-4003). The cells were maintained routinely in phenol red-free DMEM/F12 supplemented with 10% charcoal/dextran treated FBS, 1% ITS + 1, and 50 mg/L gentamycin, at 37 °C and 5% CO2. Both cell lines were negative for mycoplasma contamination; mycoplasma-free cells were confirmed repeatedly during the study.
(§3) Cells were seeded at a density of 0.15 × 10^5 cells/cm^2 in 6-well plates. The 24-h cell cultures were treated with resveratrol and its derivatives for 48 h under standard culture conditions. Camptothecin was applied as a reference apoptosis inducer; its final concentrations were set to 5 µM and 50 µM.
(§4) Cell viability and metabolic activity were determined using the MTT colorimetric assay, according to the protocol described in previous studies. Based on the obtained data, the dose–response curves were plotted, and inhibitory concentrations (IC) were calculated. In addition, cell proliferation was measured using the alamarBlue™ Cell Viability Reagent (Invitrogen, Carlsbad, CA, USA) according to the manufacturer's protocol. Fluorescence was measured using a Tecan M200 Infinite microplate reader (Tecan Group Ltd., Männedorf, Switzerland).

[4] = system: endometrial stromal T HESC cells; assay: MTT reduction assay, cell viability; type: cell-based, human; settings: for IC50: Homo sapiens; for IC50 / IC10: T HESC cells, 48-h incubation, MTT
Procedure: as §1, §2, §3, §4

[5] = system: BAX, FAS, CASP3, CASP8, and CASP9 genes; assay: Real-time PCR, proapoptotic gene panel in 12Z cells; type: cell-based, human
From the text: (§5) Figure 7 Effect of resveratrol and its analogs on the mRNA expression of BCL2, BCL2L1, BAX, FAS, CASP3, CASP8, and CASP9 genes in endometriotic 12Z cells, assessed by real-time PCR. Data were normalized against β-actin and expressed as relative mRNA expression (-fold of control). The values represent the means (n = 3) ± SD. Significant differences *p < 0.05; **p < 0.01; ***p < 0.001 compared to vehicle control.
The FAS overexpression depended on the concentration of stilbenes, reaching a relative expression up to tenfold higher in treated endometriotic cells. The role of proteases in resveratrol-, pterostilbene-, and piceatannol-induced apoptosis was also indicated by the upregulation of well-known initiator caspases of the mitochondrial and death receptor apoptotic pathways such as caspases 8, 9 and executioner caspase 3 (Fig. 7).
Gene expression analysis was carried out according to the previously described protocol. TRI reagent was applied for total RNA isolation, synthesis cDNA Transcriptor First-Strand kit (Roche Diagnostics GmbH, Mannheim, Germany) for first-strand cDNA synthesis, and SYBR® Select Master Mix (Life Technologies, Carlsbad, CA, USA) for real-time PCR. […] Relative mRNA expression was shown as fold change calculated using the 2^−ΔΔCt method compared with control cells.

[6] = system: endometriotic 12Z cells; assay: Annexin V/PI double staining, flow cytometry; type: cell-based, human; settings: 200 µM, 48 h
Procedure: After treating endometriotic 12Z cells with stilbenes, the phosphatidylserine externalization was measured by Annexin V and PI double staining (Fig. 4A). Examples of the single-cell images from sub-populations: live cells (Annexin V/PI-double negative), early apoptotic cells (Annexin V-positive/PI-negative), late apoptotic cells (Annexin V/PI-double positive), necrotic cells (Annexin V-negative/PI-positive) are presented in Fig. 4B.
Figure 4 Flow cytometry analysis of endometriotic 12Z cells stained with PI and FITC-Annexin V. Cells were treated with resveratrol, pterostilbene, piceatannol, polydatin and their vehicle (0.5% ethanol) for 48 h. Camptothecin was used as a positive control. (A) Representative images of each distinct cellular subset. n = 4; scale bars = 20 μm. (B) Representative flow cytometry dot plots. (C) Summary of FITC-Annexin V and PI stained populations in 12Z cell cultures. […] The results are presented as means ± SD. *p < 0.05, **p < 0.01, ***p < 0.001 compared to vehicle control.
Apoptosis was determined by Annexin V and propidium iodide (PI) double staining with the FITC Annexin V Apoptosis Detection kit (BD Pharmingen, Heidelberg, Germany) by flow cytometry according to the manufacturer's instructions. […] The cells were analyzed with an Amnis™ FlowSight™ flow cytometer (Luminex Corporation, TX, USA). […]

[7] = system: endometriotic 12Z cells; assay: Cell cycle analysis by PI staining, flow cytometry; type: cell-based, human; settings: 100 µM, 48 h
Procedure: To investigate whether resveratrol and its analogs have interfered with cell cycle progression in endometriotic 12Z cells, we analyzed the cell cycle distribution by flow cytometry. […] The largest subpopulation of apoptotic cells was found in the cell cultures treated with resveratrol and pterostilbene at the concentration of 100 µM (31.2 ± 8.0% and 33.1 ± 9.7%, respectively) and piceatannol at a concentration of 200 µM (45.1 ± 5. 6%).
Cell cycle progression was analyzed by flow cytometry using PI staining. After treatment, 12Z cells were collected, washed with PBS, and fixed in 70% ethanol. The cells were then washed, resuspended in PBS, and stained with 50 μg/ml PI in the presence of 100 μg/ml RNase A. Cell cycle distribution was analyzed using a FACSCanto flow cytometer (Becton Dickinson, San Jose, CA, USA). Data analysis was performed with the FACS Diva software (Becton Dickinson).

[8] = system: BAX gene; assay: Real-time PCR, BAX mRNA expression in 12Z cells; type: cell-based, human; settings: fold of control, normalized against β-actin
From the text: The effect of resveratrol and its natural analogs on the expression of pro- or antiapoptotic regulators, was examined by real-time PCR. […] BAX overexpression was also documented in 12Z cells exposed to resveratrol.
as §5
Gene expression analysis was carried out according to the previously described protocol. TRI reagent was applied for total RNA isolation, synthesis cDNA Transcriptor First-Strand kit (Roche Diagnostics GmbH, Mannheim, Germany) for first-strand cDNA synthesis, and SYBR® Select Master Mix (Life Technologies, Carlsbad, CA, USA) for real-time PCR. The levels of transcripts were normalized using β-actin as an internal control, which was previously applied in 12Z cells. Relative mRNA expression was shown as fold change calculated using the 2^−ΔΔCt method compared with control cells.

[9] = system: CASP3 gene; assay: Real-time PCR, caspase-3 mRNA expression in 12Z cells; type: cell-based, human; settings: concentration not given
From the text: as §5
We analyzed the activation of caspases at the molecular and cellular levels. […] Caspase 3 expression in pterostilbene-induced apoptosis in endometriotic cells was much weaker, even though this compound generated the most significant number of DNA strand breaks. […] It has now been recognized that in response to apoptotic stimuli, mitochondria can also release caspase-independent cell death effectors such as apoptosis-inducing factor (AIF) and endonuclease G. Following release and translocation to the nucleus, AIF becomes an active executioner of the cell death by the initiation of large-scale DNA fragmentation^37. It is essential to realize that apoptosis evolved complex death pathways, which overlap with each other. […]
Gene expression analysis was carried out according to the previously described protocol. […] Relative mRNA expression was shown as fold change calculated using the 2^−ΔΔCt method compared with control cells.

[10] = system: endometrial stromal cells derived from patients with endometriosis; set-up: method as in PMID 33083332, PMID 26782781; settings: cited from earlier work
[11] = system: epithelial 12Z cells; set-up: method as in PMID 35361545; settings: 100 µM, 48-h treatment; cited from earlier work
[12] = system: endometrial stromal St-T1b cells; set-up: method as in PMID 35361545; settings: 100 µM, 48-h treatment; cited from earlier work

Row | SMILES | DNA strand breaks (TUNEL-positive cells) ([1]; 100 µM) | caspase-3/7 activity increase ([2]; 200 µM) | IC10 [3] | IC50 [3] [µM] | IC50 [4] [µM] | IC10 [4] | DNA strand breaks (TUNEL-positive cells) ([1]; concentration not given) [%] | subpopulation of apoptotic cells (lower DNA content, subG1) [7] [%] | caspase-3/7 activity increase ([2]; 100 µM) | cytotoxicity in 12Z versus T HESC cells, comparing IC50 values [3] | also measured
1 | Oc1cc(O)cc(C=Cc2ccc(O)c(O)c2)c1 [Piceatannol, 3,3′,4,5′-tetrahydroxystilbene] | 49.6% and ~50% | 2.8 fold | 167.50 ± 11.36 µM | 224 ± 6.47 | 364 ± 17 | 222.68 ± 14.49 ^# µM |  |  |  |  | 
2 | OC[C@H]1O[C@@H](Oc2cc(O)cc(/C=C/c3ccc(O)cc3)c2)[C@H](O)[C@@H](O)[C@@H]1O [Polydatin, 3,4′,5-trihydroxystilbene-3-β-D-glucoside] |  |  | 86.76 µM and 86.76 ± 10.01 µM | 243 ± 22.5 | > 400 | > 400 µM | 1.08 |  |  |  | mRNA transcripts of BAX, FAS, CASP3, CASP8, and CASP9 genes [5]: did not significantly increase; apoptosis stage induced (Annexin V/PI) ([6]; 50 µM, 100 µM): increased population of early apoptosis cells without induction of late apoptosis; caspase 3/7 activity change ([2]; concentration not given): not significantly changed; cytotoxicity to T HESC cells ([4]; concentrations up to 400 µM): not cytotoxic
3 | COc1cc(C=Cc2ccc(O)cc2)cc(OC)c1 [Pterostilbene, 3,5-dimethoxy-4′-hydroxystilbene] |  | inhibited their activity | 29.34 ± 4.46 µM | 73.9 ± 6 | 145 ± 7.71 | 113.79 ± 5.11 ^## µM |  | 33.1 ± 9.7 | modestly activated | almost twofold lower | BAX mRNA expression increase ([8]; 100 µM): approximately 16 fold; treated cells classified as apoptotic cells [6]: approximately 94%; DNA strand breaks (TUNEL-positive cells) ([1]; 200 µM): 62.6%
4 | Oc1ccc(/C=C/c2cc(O)cc(O)c2)cc1 [Resveratrol] | 42.8% |  | 8.99 ± 4.29 µM | 49.3 ± 11.4 | 251 ± 1.58 | 160.35 ± 7.05 µM |  | 31.2 ± 8.0 | 10.3 fold | fivefold higher | caspase-3 mRNA expression upregulation [9]: 7.3 fold; endometriotic stromal cell viability (reduced to) ([10]; 200 μM): approximately 50%; influence on viability of endometrial stromal cells ([10]; concentrations up to 100 μM, 48-h treatment): did not influence the viability; BAX mRNA expression increase ([8]; 50 µM): approximately sevenfold; reduction of cell viability [11]: 45.4%; reduction of cell viability [12]: 49.2%
5 | CC[C@@]1(O)C(=O)OCc2c1cc1n(c2=O)Cc2cc3ccccc3nc2-1 [camptothecin, reference compound] |  |  |  |  |  |  | 32.5 |  |  |  | 
